Tests used:
[1] = system: TeloDNA antisense (5'-fluorescein) (DNA, single strand) CCCTAACCCTAACCCTAACCCTAA; assay: fluorescence polarization; conditions: 150 mM salt (KCl, NaCl or LiCl; which not stated); 20 mM HEPES pH 7.5, room temperature, tRNA competitor; dilutions from 50 μM compound
[2] = biological target: TERRA; assay: FP assay, compound binding to 5′ fluorescein-labeled TERRA; conditions: 10 nM fluorescein-labeled probe, 3 independent experiments
Description: All the nucleic acids, peptides and chemicals were dissolved in buffer containing 20 mM HEPES pH7.5, 150 mM salt (KCl, NaCl, LiCl) at the stock concentration of 1 mM. For peptide and nucleic acid interactions, 25μL of each nucleic acids with a sequential twofold dilutions starting from 50 μM was added into each well of 96-well plate followed by adding 25μL of 10 nM FITC labeled TRF2 peptide. For compounds and nucleic acid interactions, 20μL of each compounds with a sequential twofold dilutions starting from 50 μM were added into each well of 96-well plate followed by adding 5μL of 20 ng/mL tRNA and 25μL of 10 nM FAM labeled nucleic acids. For inhibition assay, 5μL FITC labeled TRF2 GAR peptide (10 nM final concentration) and 10 μL oligos (5 μM final concentration) were mixed, followed by adding 5μL of each compound with a sequential twofold dilutions starting from 50 μM into each well of 384-well plate. All components were mixed thoroughly, and the plate was incubated at room temperature for 1 h before placing in an Envision Plate Reader for reading at 495/520 nm. All data curves were fitted using Prism 8.0.

[3] = system: TERRA (unlabelled) (RNA, G4) UUAGGGUUAGGGUUAGGGUUAGGG; assay: fluorescence polarization, displacement of TRF2 GAR peptide; conditions: 150 mM KCl, NaCl or LiCl (salt not specified); 20 mM HEPES; 20 mM HEPES pH 7.5, room temperature; FITC-TRF2 GAR peptide 10 nM displaced; 5 μM oligo
[4] = system: TRF2 interaction with TERRA; assay: RNA-ChIP assay of TRF2-TERRA interaction in LOX cells; assay type: cell-based; conditions: Homo sapiens, 24 h, read-out: inhibition of TRF2 interaction with TERRA relative to PP control
Description: Mei et al, 2020 TERRA Requires TRF2 GAR Domain […]
blot procedures. Northern blot was performed as previously described with some modifications […]
2. Briefly, 6 µg RNA was denatured in NorthernMax formaldehyde loading dye (Ambion) for 15 […]
min at 65 °C and separated by 1.2% agarose formamide gel in 1X Mops buffer (Ambion) at […]
5V/cm for 2-3 hrs. RNA samples were transferred to GeneScreen Plus blotting membranes […]
(Perkin-Elmer) with 10X SSC and UV cross-linked onto membranes at 125 mJ in UV […]
Stratalinker 2400 (Stratagene). The hybridization was performed using a 32P-labeled TERRA […]
probe in Church buffer (0.5 N Na-phosphate, pH 7.2, 7% SDS, 1 mM EDTA, 1% BSA) for […]
overnight at 50 °C. The blot was washed twice in 0.2 N Na-phosphate, 2% SDS, and 1 mM […]
EDTA at room temperature and once in 0.1 N Na-phosphate, 2% SDS, and 1 mM EDTA at […]
50 °C. Images were collected by phosphor- imager (Amersham Biosciences), and were […]
visualized with a Typhoon 9410 Imager (GE Healthcare) and quantified with ImageQuant TL […]
Genomic DNA was isolated from cells using a genomic DNA purification kit (Promega) and digested with AluI and MboI. Digested genomic DNA was purified by phenol/choloroform extraction and quantified using a Qubit 4 Fluorometer (Thermal Scientific). […] The DNA was transferred to GeneScreen Plus blotting membranes (Perkin-Elmer) and analyzed by Southern blot. […]

[5] = system: TERRA in LOX cells; assay: TERRA levels by RNA dot blot and Northern blot in LOX cells; assay type: cell-based, human; conditions: 2 μM, 3 days; for accumulation of TERRA as a shorter form: Northern blot

SMILES | binding [1] | EC50 [2] [µM] | IC50 [3] [µM] | inhibition at 2 µM [4] [%] | accumulation of TERRA as a shorter form [5] | total TERRA levels relative to PP control ([5]; RNA dot blot and Northern blot)
CCc1c(C)c2cc3nc(cc4nc(cc5c(CC)c(C)c(cc1[nH]2)n5C)C(C)=C4CCC(=O)O)C(CCC(=O)O)=C3C [NMM, N-methyl mesoporphyrin IX] | no | 0.68 | 0.42 | ~50 | accumulated as a shorter form | reduced total TERRA levels
CN(C)c1ccc(Nc2c3ccc(NC(=O)CCN4CCCC4)cc3nc3cc(NC(=O)CCN4CCCC4)ccc23)cc1 [BRACO-19] | no | 7.4 | 0.24 | ~50 | not observed | –
